Test [1] deals with calmodulin insensitive cyclic GMP phosphodiesterase (Homo sapiens, UniProt O76074). Briefly: Phosphodiesterase activity: inhibition of calmodulin insensitive cyclic GMP phosphodiesterase. It is filed as biochemical. Particulars: procedure described in European Patent Application No. 293063; range given for the listed Examples together; read-out: IC50 (concentration of inhibitor required for 50% inhibition of enzyme activity). Here is the method: The activity of the compounds of the present invention as inhibitors of a calmodulin insensitive cyclic GMP phosphodiesterase was measured using the procedure described in European Patent Application No. 293063. […] The compounds of the present invention have the advantage that they are selective in not inhibiting cyclic AMP phosphodiesterase (type III).

Test [2] concerns U46619-induced bronchoconstriction. Briefly: Bronchodilatation in vivo: inhibition of U46619-induced bronchoconstriction in anaesthetised guinea-pigs. Particulars: Cavia porcellus, iv, U46619 infused i.v. 2.5 nmol/min, compound i.v. bolus, peak inhibition, read-out: BD50 (dose required to reduce the U46619-induced bronchoconstriction by 50%). Details: species or system guinea-pig (male, Dunkin Hartley). Here is the method: Male guinea-pigs of the Dunkin Hartley strain (500-600 g) were anaesthetised with Sagatal (pentobarbital sodium) (60 mg/kg). Airway resistance was measured using a modification of the classical Konzett-Rossler technique (J. Pharm. Methods, 13, 309-315, 1985). U46619 (9,11-methanoepoxy-pGH2) was infused i.v. at a rate of 2.5 nmol/min, this produced a steady state of bronchoconstriction (approximately 120% increase from basal airway resistance). The compound under test was administered by i.v. bolus injection, and the subsequent peak inhibition of bronchoconstriction recorded.
The dose of compound required to reduce the U46619-induced bronchoconstriction by 50% is given as the BD50.

Test [3] deals with hindquarter blood flow / vascular resistance. Briefly: Vasodilatation in vivo: hindquarter blood flow in anaesthetised rats. Particulars: Rattus norvegicus, iv, bolus i.v., from dose response curves, read-out: EDHQ50 (dose required to produce a 50% increase in hindquarter blood flow). Details: species or system rat (male Wistar). The protocol:
Male Wistar rats (300 g) were anaesthetised with a sodium 5-ethyl-5-(1-methylpropyl)-2-thiobarbiturate/sodium pentobarbitone mixture i.p. (62.5 and 22.5 mg/kg respectively). The trachea was cannulated and the rats breathed spontaneously air enriched with O2 (5 ml/min). Blood pressure was recorded from a carotid artery and a jugular vein was cannulated for the administration of compounds. The temperature of the animal was maintained at 37° C. by the use of an electric blanket. […] The perfusion circuit was primed with 5% bovine serum albumin dissolved in 0.9% sodium chloride solution, pH adjusted to 7.4. Initially the pump rate was set between 10 and 15 ml/min to match the hind quarter perfusion pressure to that of the systemic circulation. Once set, the pressure remained unaltered for the rest of the experiment. A change in the speed of the pump (equivalent to hindquarter blood flow) was used to assess the changes in hindquarter vascular resistance.
All compounds were administered as a bolus i.v. and from the dose response curves the dose required to produce a 50% increase in hindquarter blood flow (EDHQ50) was determined in μmoles/kg.

For test [4], the system named is ovalbumen-induced bronchoconstrictor response. Briefly: Anti-allergic activity: ovalbumen-induced bronchoconstriction in sensitised guinea-pigs. In kind it is in vivo, guinea-pig (male, Duncan Hartley). The following applies: 11 μmol/kg i.v. bolus; 30 minutes following drug administration; ovalbumen 1 mg/kg i.v. challenge; n = 6. Here is the method: Male Duncan Hartley guinea-pigs (250-300 g) were sensitised to ovalbumen by i.p. injection of 2 ml of 50 mg.ml^-1 i.p. and 0.2 ml s.c. Three weeks later they were anaesthetised with 60 mg.kg^-1 sodium pentabarbitone. The trachea was cannulated and the animal respired at a rate of 40 breaths per minute and at an initial tracheal inflation pressure of 16 mmHg. Tracheal inflation pressure was measured by a transducer connected to a side arm of the respiration circuit The carotid artery was cannulated for the measurement of blood pressure and the signal was used to trigger an instantaneous rate meter. A jugular vein was cannulated for the administration of drug and allergen. After surgery the animals were allowed to stabilise and the drug was administered i.v. as a bolus. Following this, ovalbumen 1 mg.kg^-1 was injected i.v. as the antigen challenge either 2, 15 or 30 minutes following drug treatment and the peak bronchoconstrictor response recorded. For the control group ovalbumen only was given. One ovalbumen challenge per guinea-pig was used and n = 6 for each time point. The percentage increase in tracheal inflation pressure was calculated.

`CCCOc1ccccc1-c1cc(C)c(C#N)c(=O)[nH]1` [Example 11, 3-Cyano-4-methyl-6-(2-propoxyphenyl)-2(1H)-pyridinone]: the IC50 in test [1] is 1.7 to 30 µM. In test [2], the ED50 is 2.3 µmol/kg.

Consider `CCCOc1ccccc1-c1[nH]c(=O)c(C#N)cc1C` [Example 12, 3-Cyano-5-methyl-6-(2-propoxyphenyl)-2(1H)-pyridinone], for which the IC50 in test [1] is 1.7 to 30 µM. Still for that read-out and setting: the result for `CCCOc1ccccc1-c1ccc(C#N)c(=S)[nH]1` [Example 14, 3-Cyano-6-(2-propoxyphenyl)-2(1H)-pyridinethione] reads 1.7 to 30 µM. Turning to `CCCOc1ccccc1-c1ccc(C#N)c(=O)[nH]1` [Example 1, 3-Cyano-6-(2-propoxyphenyl)-2(1H)-pyridinone], the IC50 in test [1] was in the range of 1.7 to 30 µM. In addition, the ED50 in test [2] was 10 µmol/kg. For the same molecule, in test [3], the ED (50% increase) worked out at 11.5 µmol/kg. For `CCCOc1ccccc1-c1cccc(=O)[nH]1` [Example 6, 6-(2-Propoxyphenyl)-2(1H)-pyridinone], the IC50 in test [1] lay in the range of 1.7 to 30 µM. For `CCCOc1ccccc1-c1ccc([N+](=O)[O-])c(=O)[nH]1` [Example 7, 3-Nitro-6-(2-propoxyphenyl)-2(1H)-pyridinone], in test [1], the IC50 lay in the range of 1.7 to 30 µM. For the same molecule, in test [2], the ED50 stood at 7.7 µmol/kg. Regarding `CCOc1ccccc1-c1ccc(C#N)c(=O)[nH]1` [Example 9, 3-Cyano-6-(2-ethoxyphenyl)-2(1H)-pyridinone], in test [1], the IC50 was 1.7 to 30 µM. As for `CCCOc1ccccc1-c1ccc(C(=O)O)c(=O)[nH]1` [Example 3, 6-(2-Propoxyphenyl)-1,2-dihydro-2-oxopyridine-3-carboxylic acid], the ED50 in test [2] is 10.6 µmol/kg. Consider `CCCOc1ccccc1-c1ccc(C(N)=O)c(=O)[nH]1` [Example 2, 6-(2-Propoxyphenyl)-1,2-dihydro-2-oxopyridine-3-carboxamide], for which, in test [1], the IC50 lay in the range of 1.7 to 30 µM. In addition, the ED50 in test [2] amounted to 1.1 µmol/kg. In addition, the “inhibition of the control bronchoconstrictor response” value in test [4] is 44%. Moreover, the ED (50% increase) in test [3] was found to be 14 µmol/kg. Take `CCCOc1ccccc1-c1ccc(C(=O)OC)c(=O)[nH]1` [Example 4, Methyl 6-(2-propoxyphenyl)-1,2-dihydro-2-oxopyridine-3-carboxylate]: the IC50 in test [1] lay within 1.7 to 30 µM.

The values above are taken from patent US5254571A, “Chemical compounds” (Smith Kline & French Laboratories Ltd., priority 1988, dated 1993).
